Among the data in publication PMC12121777 (PLOS One, 2025) are MIC values, retold here.

Converted amounts (≈) assume the structure as drawn. Like-named read-outs stand apart in the source and are kept apart here.

The subject of assay [1] is Mycobacterium avium 330/88. Put plainly: MIC, micro method in Šula's semisynthetic medium, M. avium. Format: cell-based.
The test system of another assay is Mtb 331/88 (i.e., H37Rv). Put plainly: MIC, micro method in Šula's semisynthetic medium, drug-susceptible Mtb. The settings on record: Mycobacterium tuberculosis, H37RV. Format: cell-based, Mycobacterium tuberculosis.
The subject of assay [2] is Mycobacterium kansasii 6509/96. The assay can be described thus: MIC, micro method in Šula's semisynthetic medium, M. kansasii clinical isolate. Format: cell-based. The settings on record: read-out: MIC M. kansasii 6509/96.
Where [3] appears, read: 330/88, 336 h, read-out: MIC M. avium 330/88.
The mark [4] stands for this setting: 330/88, 504 h, read-out: MIC M. avium 330/88.

In the case of `CCCNc1nnc(-c2cc([N+](=O)[O-])cc([N+](=O)[O-])c2)o1` [Compound 5c, 5-(3,5-Dinitrophenyl)-N-propyl-1,3,4-oxadiazol-2-amine], the MIC was over 500 µM in assay [1] (setting [3]); over 500 µM in assay [1] (setting [4]); 4 µM (≈ 1.17 µg/mL) in the assay on Mtb 331/88 (i.e., H37Rv) (336 h, 14 days); 4 µM (≈ 1.17 µg/mL) with Mtb 331/88 (i.e., H37Rv) (504 h, 21 days); 4 µM (≈ 1.17 µg/mL) in assay [2] (6509/96, 168 h); 8 µM (≈ 2.35 µg/mL) in assay [2] (6509/96, 336 h). The MIC in assay [2] (6509/96, 504 h) is 16 µM (≈ 4.69 µg/mL).
Regarding `CCCCCCCCCCCCCCCCCCNC(=O)NNC(=O)c1cc([N+](=O)[O-])cc([N+](=O)[O-])c1` [Compound 4r, 2-(3,5-Dinitrobenzoyl)-N-octadecylhydrazine-1-carboxamide], the MIC in assay [1] (setting [3]) was over 1000 µM; in assay [1] (setting [4]), over 1000 µM; in the assay on Mtb 331/88 (i.e., H37Rv) (336 h, 14 days) it was 8 µM (≈ 4.17 µg/mL); against Mtb 331/88 (i.e., H37Rv) (504 h, 21 days), 16 µM (≈ 8.35 µg/mL); in assay [2] (6509/96, 168 h), 8 µM (≈ 4.17 µg/mL); in assay [2] (6509/96, 336 h), 16 µM (≈ 8.35 µg/mL). Further, the MIC in assay [2] (6509/96, 504 h) is 16 µM (≈ 8.35 µg/mL).
Turning to `CNc1nnc(-c2cc([N+](=O)[O-])cc([N+](=O)[O-])c2)o1` [Compound 5a, 5-(3,5-Dinitrophenyl)-N-methyl-1,3,4-oxadiazol-2-amine], the MIC is 500 µM (≈ 133 µg/mL) in assay [1] (setting [3]); 500 µM (≈ 133 µg/mL) in assay [1] (setting [4]); 8 µM (≈ 2.12 µg/mL) in the assay with Mtb 331/88 (i.e., H37Rv) (336 h, 14 days); 16 µM (≈ 4.24 µg/mL) in the assay with Mtb 331/88 (i.e., H37Rv) (504 h, 21 days); 16 µM (≈ 4.24 µg/mL) in assay [2] (6509/96, 168 h); 32 µM (≈ 8.49 µg/mL) in assay [2] (6509/96, 336 h). Moreover, in assay [2] (6509/96, 504 h), the MIC was found to be 32 µM (≈ 8.49 µg/mL).
`O=[N+]([O-])c1cc(-c2nnc(NCc3ccc(Cl)cc3Cl)o2)cc([N+](=O)[O-])c1` [Compound 7d, N-(2,4-Dichlorobenzyl)-5-(3,5-dinitrophenyl)-1,3,4-oxadiazol-2-amine]: the MIC in assay [1] (setting [3]) turned out to be 1 µM (≈ 0.41 µg/mL); in assay [1] (setting [4]), 1 µM (≈ 0.41 µg/mL); in the assay with Mtb 331/88 (i.e., H37Rv) (336 h, 14 days), 0.06 µM (≈ 0.0246 µg/mL); against Mtb 331/88 (i.e., H37Rv) (504 h, 21 days), 0.125 µM (≈ 0.0513 µg/mL); in assay [2] (6509/96, 168 h), 0.06 µM (≈ 0.0246 µg/mL); in assay [2] (6509/96, 336 h), 0.125 µM (≈ 0.0513 µg/mL). Besides, the MIC in assay [2] (6509/96, 504 h) stood at 0.125 µM (≈ 0.0513 µg/mL).
`CCCCCCCCCCCCCCCCCNC(=O)NNC(=O)c1cc([N+](=O)[O-])cc([N+](=O)[O-])c1` [Compound 4q, 2-(3,5-Dinitrobenzoyl)-N-heptadecylhydrazine-1-carboxamide]: the MIC in assay [1] (setting [3]) was over 500 µM; in assay [1] (setting [4]), over 500 µM; in the assay with Mtb 331/88 (i.e., H37Rv) (336 h, 14 days), 8 µM (≈ 4.06 µg/mL); against Mtb 331/88 (i.e., H37Rv) (504 h, 21 days), 16 µM (≈ 8.12 µg/mL); in assay [2] (6509/96, 168 h) it was 8 µM (≈ 4.06 µg/mL); in assay [2] (6509/96, 336 h) it was 16 µM (≈ 8.12 µg/mL). Moreover, the MIC in assay [2] (6509/96, 504 h) was 16 µM (≈ 8.12 µg/mL).
With `CCNc1nnc(-c2cc([N+](=O)[O-])cc([N+](=O)[O-])c2)o1` [Compound 5b, 5-(3,5-Dinitrophenyl)-N-ethyl-1,3,4-oxadiazol-2-amine], the MIC was over 1000 µM in assay [1] (setting [3]); over 1000 µM in assay [1] (setting [4]); over 1000 µM in assay [1] (330/88, read-out: MIC M. avium); 8 µM (≈ 2.23 µg/mL) with Mtb 331/88 (i.e., H37Rv) (336 h, 14 days); 16 µM (≈ 4.47 µg/mL) in the assay with Mtb 331/88 (i.e., H37Rv) (504 h, 21 days); 16 µM (≈ 4.47 µg/mL) in assay [2] (6509/96, 168 h). Moreover, the MIC in assay [2] (6509/96, 336 h) came to 32 µM (≈ 8.93 µg/mL); in assay [2] (6509/96, 504 h), 32 µM (≈ 8.93 µg/mL).
For the molecule `COc1ccc(CNc2nnc(-c3cc([N+](=O)[O-])cc([N+](=O)[O-])c3)s2)cc1` [Compound 8b, 5-(3,5-Dinitrophenyl)-N-(4-methoxybenzyl)-1,3,4-thiadiazol-2-amine], the MIC in assay [1] (setting [3]) is 4 µM (≈ 1.55 µg/mL); in assay [1] (setting [4]), 4 µM (≈ 1.55 µg/mL); in the assay on Mtb 331/88 (i.e., H37Rv) (336 h, 14 days), at most 0.03 µM; against Mtb 331/88 (i.e., H37Rv) (504 h, 21 days), at most 0.03 µM; in assay [2] (6509/96, 168 h) it was 0.06 µM (≈ 0.0232 µg/mL); in assay [2] (6509/96, 336 h), 0.06 µM (≈ 0.0232 µg/mL). The MIC in assay [2] (6509/96, 504 h) amounted to 0.125 µM (≈ 0.0484 µg/mL).
As to `CCCNC(=O)NNC(=O)c1cc([N+](=O)[O-])cc([N+](=O)[O-])c1` [Compound 4c, 2-(3,5-Dinitrobenzoyl)-N-propylhydrazine-1-carboxamide], the MIC came out at 1000 µM (≈ 311 µg/mL) in assay [1] (setting [3]); 1000 µM (≈ 311 µg/mL) in assay [1] (setting [4]); 16 µM (≈ 4.98 µg/mL) in the assay on Mtb 331/88 (i.e., H37Rv) (336 h, 14 days); 16 µM (≈ 4.98 µg/mL) against Mtb 331/88 (i.e., H37Rv) (504 h, 21 days); 8 µM (≈ 2.49 µg/mL) in assay [2] (6509/96, 168 h); 16 µM (≈ 4.98 µg/mL) in assay [2] (6509/96, 336 h). Moreover, the MIC in assay [2] (6509/96, 504 h) amounted to 16 µM (≈ 4.98 µg/mL).
Consider `O=[N+]([O-])c1cc(-c2nnc(NCc3ccc(Cl)cc3)s2)cc([N+](=O)[O-])c1` [Compound 8c, N-(4-Chlorobenzyl)-5-(3,5-dinitrophenyl)-1,3,4-thiadiazol-2-amine], for which the MIC in assay [1] (setting [3]) was 2 µM (≈ 0.784 µg/mL); in assay [1] (setting [4]), 2 µM (≈ 0.784 µg/mL); against Mtb 331/88 (i.e., H37Rv) (336 h, 14 days), at most 0.03 µM; against Mtb 331/88 (i.e., H37Rv) (504 h, 21 days) it was at most 0.03 µM; in assay [2] (6509/96, 168 h), 0.06 µM (≈ 0.0235 µg/mL); in assay [2] (6509/96, 336 h), 0.125 µM (≈ 0.049 µg/mL). The MIC in assay [2] (6509/96, 504 h) was 0.125 µM (≈ 0.049 µg/mL).
Take `CCCCCCCCCCCCCCCCCCNc1nnc(-c2cc([N+](=O)[O-])cc([N+](=O)[O-])c2)o1` [Compound 5r, 5-(3,5-Dinitrophenyl)-N-octadecyl-1,3,4-oxadiazol-2-amine]: the MIC in assay [1] (setting [3]) is over 1000 µM; in assay [1] (setting [4]), over 1000 µM; in assay [1] (330/88, read-out: MIC M. avium), over 1000 µM; against Mtb 331/88 (i.e., H37Rv) (336 h, 14 days), over 32 µM; with Mtb 331/88 (i.e., H37Rv) (504 h, 21 days) it was over 32 µM; in assay [2] (6509/96, 168 h), 64 µM (≈ 32.2 µg/mL). For the same molecule, the MIC in assay [2] (6509/96, 336 h) is 64 µM (≈ 32.2 µg/mL); in assay [2] (6509/96, 504 h) it was 64 µM (≈ 32.2 µg/mL).
